According to ChEMBL document CHEMBL1151840, “Synthetic oligoribonucleotides containing arabinonucleotides act as agonists of TLR7 and 8” (Bioorg Med Chem Lett, 2009):
The source made the active and inactive calls. The calls are words filed in the database; no cut-off is given here.

What was measured:
PBMC [1] = assay: Stimulation of immune response in human PBMC assessed as induction of IL12 production at 150 ug/ml after 24 hrs; format: functional, cell-based
PBMC [2] = assay: Stimulation of immune response in human PBMC assessed as induction of IL10 production at 150 ug/ml after 24 hrs; format: functional, cell-based
PBMC [3] = assay: Stimulation of immune response in human PBMC assessed as induction of MIP1alpha production at 150 ug/ml after 24 hrs; format: functional, cell-based
Mus musculus [4] = assay: Stimulation of immune response in C57BL/6 mouse assessed as induction of serum chemokine KC production at 50 mg/kg, sc after 2 hrs by luminex multiplex assay; format: functional, organism-based; parameters: dose 50 mg/kg
[5] = target: T1, Toll-like receptor 8 (Homo sapiens) (UniProt Q9NR97); assay: Agonist activity at human TLR8 expressed in HEK293XL cells assessed as NF-kappaB activation after 18 hrs; format: functional, cell-based
T1 sequence (whole entry): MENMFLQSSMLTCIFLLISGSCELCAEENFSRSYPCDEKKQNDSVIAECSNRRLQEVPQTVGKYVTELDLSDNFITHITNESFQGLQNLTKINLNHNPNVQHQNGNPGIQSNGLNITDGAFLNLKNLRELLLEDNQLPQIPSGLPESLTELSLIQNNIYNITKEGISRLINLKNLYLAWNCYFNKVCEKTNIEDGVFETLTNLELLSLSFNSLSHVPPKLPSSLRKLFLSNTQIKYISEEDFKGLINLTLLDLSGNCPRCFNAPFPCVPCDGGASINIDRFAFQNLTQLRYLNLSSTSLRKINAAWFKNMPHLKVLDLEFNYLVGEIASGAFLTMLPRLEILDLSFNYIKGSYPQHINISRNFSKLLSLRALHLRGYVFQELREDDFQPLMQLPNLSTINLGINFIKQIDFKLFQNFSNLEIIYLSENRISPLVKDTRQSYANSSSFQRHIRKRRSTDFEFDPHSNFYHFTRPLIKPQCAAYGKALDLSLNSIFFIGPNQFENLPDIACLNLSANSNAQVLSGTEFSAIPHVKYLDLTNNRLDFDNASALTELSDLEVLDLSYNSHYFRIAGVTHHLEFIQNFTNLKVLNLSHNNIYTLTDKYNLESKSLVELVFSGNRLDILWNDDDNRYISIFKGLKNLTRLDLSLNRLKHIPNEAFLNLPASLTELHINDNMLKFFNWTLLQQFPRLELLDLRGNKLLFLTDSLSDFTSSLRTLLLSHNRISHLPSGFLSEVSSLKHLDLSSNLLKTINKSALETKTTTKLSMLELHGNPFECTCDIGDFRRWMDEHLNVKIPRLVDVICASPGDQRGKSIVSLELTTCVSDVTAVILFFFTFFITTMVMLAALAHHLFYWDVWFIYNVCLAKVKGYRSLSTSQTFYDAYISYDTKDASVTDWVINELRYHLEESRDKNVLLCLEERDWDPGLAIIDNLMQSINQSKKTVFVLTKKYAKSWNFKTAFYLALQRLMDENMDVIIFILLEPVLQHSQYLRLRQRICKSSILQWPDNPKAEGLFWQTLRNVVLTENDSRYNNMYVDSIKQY

Homo sapiens [6] = species on record: Homo sapiens; assay: Stimulation of immune response in human pDC assessed as induction of MIP1beta production at 150 ug/ml after 24 hrs; format: functional
PBMC [7] = assay: Stimulation of immune response in human PBMC assessed as induction of IFN-gamma production at 150 ug/ml after 24 hrs; format: functional, cell-based
Homo sapiens [8] = species on record: Homo sapiens; assay: Stimulation of immune response in human pDC assessed as induction of IFN-gamma production at 150 ug/ml after 24 hrs; format: functional
PBMC [9] = assay: Stimulation of immune response in human PBMC assessed as induction of IL2R level at 150 ug/ml after 24 hrs; format: functional, cell-based
Homo sapiens [10] = species on record: Homo sapiens; assay: Stimulation of immune response in human pDC assessed as induction of TNFalpha production at 150 ug/ml after 24 hrs; format: functional
PBMC [11] = assay: Stimulation of immune response in human PBMC assessed as induction of IL1-beta production at 150 ug/ml after 24 hrs; format: functional, cell-based
Mus musculus [12] = assay: Stimulation of immune response in C57BL/6 mouse assessed as induction of serum IL10 production at 50 mg/kg, sc after 2 hrs by luminex multiplex assay; format: functional, organism-based; parameters: dose 50 mg/kg
PBMC [13] = assay: Stimulation of immune response in human PBMC assessed as induction of IFNalpha production at 150 ug/ml after 24 hrs; format: functional, cell-based
[14] = Stability in human serum assessed as full-length compound remaining after 10 mins by anion-exchange HPLC; format: ADME, cell-free; conditions: read-out: Stability
Homo sapiens [15] = species on record: Homo sapiens; assay: Stimulation of immune response in human pDC assessed as induction of IFNalpha production at 150 ug/ml after 24 hrs; format: functional
Mus musculus [16] = assay: Stimulation of immune response in C57BL/6 mouse assessed as induction of serum IL12 production at 50 mg/kg, sc after 2 hrs by luminex multiplex assay; format: functional, organism-based; parameters: dose 50 mg/kg
[17] = target: T2, Toll-like receptor 7 (Homo sapiens) (UniProt Q9NYK1); assay: Agonist activity at human TLR7 expressed in HEK293XL cells assessed as NF-kappaB activation after 18 hrs; format: functional, cell-based
T2 sequence (whole entry): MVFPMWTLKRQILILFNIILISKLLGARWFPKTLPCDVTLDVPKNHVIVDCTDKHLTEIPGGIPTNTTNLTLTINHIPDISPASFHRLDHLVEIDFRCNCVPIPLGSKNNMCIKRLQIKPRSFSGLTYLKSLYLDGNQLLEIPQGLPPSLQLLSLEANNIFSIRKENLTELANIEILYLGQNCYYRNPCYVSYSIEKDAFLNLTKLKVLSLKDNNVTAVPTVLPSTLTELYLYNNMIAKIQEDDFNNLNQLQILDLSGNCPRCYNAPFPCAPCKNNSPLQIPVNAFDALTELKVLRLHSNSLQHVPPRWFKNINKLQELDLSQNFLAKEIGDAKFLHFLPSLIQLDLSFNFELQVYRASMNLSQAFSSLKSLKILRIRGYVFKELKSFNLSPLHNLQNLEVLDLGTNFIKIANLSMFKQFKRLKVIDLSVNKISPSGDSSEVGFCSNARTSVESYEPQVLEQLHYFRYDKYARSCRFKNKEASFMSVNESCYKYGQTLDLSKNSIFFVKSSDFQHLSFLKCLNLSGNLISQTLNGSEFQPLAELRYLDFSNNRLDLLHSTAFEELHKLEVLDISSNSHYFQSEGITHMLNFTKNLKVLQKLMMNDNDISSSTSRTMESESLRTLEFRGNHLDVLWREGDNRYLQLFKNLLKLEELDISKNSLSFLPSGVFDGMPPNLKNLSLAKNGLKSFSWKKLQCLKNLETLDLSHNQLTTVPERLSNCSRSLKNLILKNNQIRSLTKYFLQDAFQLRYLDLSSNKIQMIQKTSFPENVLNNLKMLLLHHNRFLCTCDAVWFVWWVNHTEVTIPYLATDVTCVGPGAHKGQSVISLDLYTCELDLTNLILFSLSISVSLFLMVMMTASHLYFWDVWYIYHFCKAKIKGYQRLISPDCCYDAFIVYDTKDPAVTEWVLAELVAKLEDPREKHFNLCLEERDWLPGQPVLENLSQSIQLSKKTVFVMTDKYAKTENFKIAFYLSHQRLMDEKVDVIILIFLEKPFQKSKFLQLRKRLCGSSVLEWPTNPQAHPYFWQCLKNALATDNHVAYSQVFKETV

PBMC [18] = assay: Stimulation of immune response in human PBMC assessed as induction of TNFalpha production at 150 ug/ml after 24 hrs; format: functional, cell-based
PBMC [19] = assay: Stimulation of immune response in human PBMC assessed as induction of MIP1beta production at 150 ug/ml after 24 hrs; format: functional, cell-based
Homo sapiens [20] = species on record: Homo sapiens; assay: Stimulation of immune response in human pDC assessed as induction of IL12 production at 150 ug/ml after 24 hrs; format: functional
Homo sapiens [21] = species on record: Homo sapiens; assay: Stimulation of immune response in human pDC assessed as induction of MIP1alpha production at 150 ug/ml after 24 hrs; format: functional
PBMC [22] = assay: Stimulation of immune response in human PBMC assessed as induction of IL8 production at 150 ug/ml after 24 hrs; format: functional, cell-based
PBMC [23] = assay: Stimulation of immune response in human PBMC assessed as induction of MCP1 production at 150 ug/ml after 24 hrs; format: functional, cell-based
PBMC [24] = assay: Stimulation of immune response in human PBMC assessed as induction of RANTES production at 150 ug/ml after 24 hrs; format: functional, cell-based

Structure (SMILES): Nc1ccn([C@@H]2O[C@H](COP(=O)(S)O[C@H]3[C@@H](O)[C@H](n4ccc(=O)[nH]c4=O)O[C@@H]3COP(=O)(S)O[C@H]3[C@H](O)[C@H](n4cnc5c(=O)[nH]c(N)nc54)O[C@@H]3COP(=O)(S)O[C@H]3[C@H](O)[C@H](n4ccc(N)nc4=O)O[C@@H]3COP(=O)(S)O[C@H]3[C@@H](O)[C@H](n4ccc(=O)[nH]c4=O)O[C@@H]3COP(=O)(S)O[C@H]3[C@@H](O)[C@H](n4ccc(=O)[nH]c4=O)O[C@@H]3COP(=O)(S)O[C@H]3[C@@H](O)[C@H](n4cnc5c(=O)[nH]c(N)nc54)O[C@@H]3COP(=O)(S)O[C@H]3[C@@H](O)[C@H](n4ccc(=O)[nH]c4=O)O[C@@H]3COP(=O)(S)O[C@H]3[C@@H](O)[C@H](n4cnc5c(=O)[nH]c(N)nc54)O[C@@H]3COP(=O)(S)OCC(O)COP(=O)(S)O[C@H]3[C@@H](O)[C@H](n4cnc5c(=O)[nH]c(N)nc54)O[C@@H]3COP(=O)(S)O[C@H]3[C@@H](O)[C@H](n4ccc(=O)[nH]c4=O)O[C@@H]3COP(=O)(S)O[C@H]3[C@@H](O)[C@H](n4cnc5c(=O)[nH]c(N)nc54)O[C@@H]3COP(=O)(S)O[C@H]3[C@@H](O)[C@H](n4ccc(=O)[nH]c4=O)O[C@@H]3COP(=O)(S)O[C@H]3[C@@H](O)[C@H](n4ccc(=O)[nH]c4=O)O[C@@H]3COP(=O)(S)O[C@H]3[C@H](O)[C@H](n4ccc(N)nc4=O)O[C@@H]3COP(=O)(S)O[C@H]3[C@@H](O)[C@H](n4cnc5c(=O)[nH]c(N)nc54)O[C@@H]3COP(=O)(S)O[C@H]3[C@@H](O)[C@H](n4ccc(=O)[nH]c4=O)O[C@@H]3COP(=O)(S)O[C@H]3[C@H](O)[C@H](n4ccc(N)nc4=O)O[C@@H]3COP(=O)(S)O[C@H]3[C@@H](O)[C@H](n4cnc5c(=O)[nH]c(N)nc54)O[C@@H]3COP(=O)(S)O[C@H]3[C@@H](O)[C@H](n4ccc(=O)[nH]c4=O)O[C@@H]3CO)[C@@H](OP(=O)(S)OC[C@H]3O[C@@H](n4cnc5c(=O)[nH]c(N)nc54)[C@H](O)[C@@H]3OP(=O)(S)OC[C@H]3O[C@@H](n4ccc(=O)[nH]c4=O)[C@H](O)[C@@H]3OP(=O)(O)S)[C@@H]2O)c(=O)n1 (some centres undefined)
- Activity (PBMC [1]): Active
- Activity (PBMC [2]): Active
- Activity (PBMC [3]): Active
- Activity (Mus musculus [4]): Active
- Activity [5]: Dose-dependent effect
- Activity (Homo sapiens [6]): Active
- Activity (PBMC [7]): Active
- Activity (Homo sapiens [8]): Active
- Activity (PBMC [9]): Active
- Activity (Homo sapiens [10]): Active
- Activity (PBMC [11]): Active
- Activity (Mus musculus [12]): Active
- Activity (PBMC [13]): Active
- remaining at 10 min [14]: 76%
- Activity (Homo sapiens [15]): Active
- Activity (Mus musculus [16]): Active
- Activity [17]: Dose-dependent effect
- Activity (PBMC [18]): Active
- Activity (PBMC [19]): Active
- Activity (Homo sapiens [20]): Active
- Activity (Homo sapiens [21]): Active
- Activity (PBMC [22]): Active
- Activity (PBMC [23]): Active
- Activity (PBMC [24]): Active
